According to patent publication US9867794B2, “Regulation of osteopontin” (Pathologica LLC, priority 2007, dated 2018):
Values joined by “and” are separate entries in the source; they are usually repeats but may differ in a detail not shown here. Equal values may be shown once.

Tests used:
CD14/16++ cells = experiment: Yield of CD14/16++ cells in culture, flow cytometry; type: cell-based, human; conditions: 10 μM MGBG; for % Reduction 14/16, Average: 5th day
TNFα [1] = experiment: Microarray analysis of mononuclear cells, TNFα probe; type: cell-based, human
Protocol: (§1) Blood samples were obtained from HIV infected patients (N=9) with positive viral load and reduced CD4 counts, and non-HIV infected, healthy controls (N=6). Blood was collected into heparin anticoagulant tubes and mononuclear cells were isolated by Percoll gradient centrifugation. The cells from each sample were split into 2: one-half receives MGBG at concentration of 10 μM and the other half received no treatment. All samples were then cultured overnight in RPMI media with 10% fetal bovine serum at 37° C. under non-adherent conditions. The next day cells were collected by centrifugation, washed one time with PBS, and lysed by resuspension in TRIZOL, and total RNA was prepared according to manufacturer's instructions (Invitrogen, Carlsbad, Calif.). […] The RNA was then amplified for microarray analysis using a 2 cycle amplification protocol according to the manufacturer's instructions (Affymetrix, Santa Clara, Calif.). The amplified RNAs were then hybridized to Human Genome U133 plus 2.0 microarrays (Affymetrix) and expression data was obtained using an Affymetrix scanner and GCOS protocols. Microarray data was analyzed with GeneSpring Microarray Suite. Results were normalized using a set of 100 probe sets determined by the manufacturer to have relatively invariant expression across most cell types.

LILRA1 [2] = experiment: Microarray analysis of mononuclear cells, LILRA1; type: cell-based, human; conditions: for LILRA1 signal +, Average: 10 μM MGBG
Protocol: as §1

LILRA1 [3] = experiment: Quantitative RT-PCR, unsorted mononuclear cells, LILRA1; type: cell-based, human
Protocol: To evaluate the effect of MGBG on gene expression, blood samples were obtained from patients (N=18, 10 HIV-infected and 8 Healthy Controls). Mononuclear cells were isolated via Percoll gradient centrifugation. The cells were split into two tubes, one treated with 10 μM of MGBG and the other non-treated. The cells were then cultured overnight in RPMI media plus 10% fetal bovine serum at 37 C under non-adherent conditions, collected, lysed using Trizol solution, and total RNA prepared according to manufacturer's instructions (Invitrogen, Carlsbad, Calif.).
Approximately 200 ng of total RNA prepared from each sample was converted to cDNA using the First Strand cDNA Synthesis Kit for RT-PCR [AMV] kit (Roche Applied Diagnostics, Indianapolis, Ind.) according to manufacturer's instructions. Around 5 ng of cDNA sample was then used for PCR performed on a LightCycler (Roche Applied Diagnostics, Indianapolis, Ind.) using the LightCycler FastStart DNA Master SYBR Green I kit. PCR conditions are as follows: 1 cycle of denaturation at 95° C. for 10 minutes, followed by 45 cycles of 95° C. for 10 seconds, 68° C. for 10 seconds, and 72° C. for 16 seconds.
The sequences of gene-specific primers evaluated are listed below. All samples were also amplified with the human β-actin LightCycler-Primer set (Roche Diagnostics).

osteopontin = experiment: QRT-PCR in CD14/CD16-separated cell fractions, osteopontin RNA; type: cell-based, human; conditions: for osteopontin RNA, median change relative to no MGBG: 10 μM MGBG
Protocol: (§2) The changes induced by MGBG in different blood cell types were determined for osteopontin and adenosine deaminase and 7 other genes. For this experiment, blood samples were obtained from 6 healthy controls (3 men/3 women from 20 to 55 years of age) and mononuclear cells were isolated via Percoll gradient centrifugation. The cells were then incubated for 3 hours in RPMI media plus 10% fetal bovine serum at 37 C. At that point MGBG was added to 10 μM to half of each sample and then the cells were incubated at 37 C for 20 more hours. The cells were then bound to magnetic beads coated with antibodies to human CD16. Bound cells (CD16 expressing) were separated from unbound cells using an AutoMACs according to manufacturer's instructions (Miltenyi, Auburn Calif.). Then CD16+ cells are released from the magnetic beads and both the CD16+ and CD16− cells are combined with magnetic beads coated with antibodies to human CD14. Antibody bound and unbound cells were then separated using the AutoMACs machine. […] Cells that neither express CD16 nor CD14 (the −/− Cells). This is mostly T lymphocytes; 2. Cells that only express CD16. This includes contaminating granulocytes not removed by Percoll centrifugation and CD16+ monocytes with very low CD14 expression; 3. Cells that express both CD16 and CD14. This includes monocytes that are expressing CD16+ and macrophages (which express high levels of both); and 4. Cells that only express CD14. This would include most normal human monocytes. After separation, cells of each fraction are washed with PBS and the number of viable cells determined by trypan blue exclusion. RNA is then prepared from each cell group using TRIZOL, according to manufacturer's instructions.

adenosine deaminase = experiment: QRT-PCR in CD14/CD16-separated cell fractions, adenosine deaminase RNA; type: cell-based, human; conditions: 10 μM MGBG
Protocol: as §2

TNFα [4] = experiment: QRT-PCR in CD14/CD16-separated cell fractions, TNFα RNA; type: cell-based, human; conditions: monocytes, 10 μM MGBG, p=0.03
Protocol: as §2, with “Cells that express both CD16 and CD14. This includes monocytes that are expressing CD16+ and macrophages (which express high levels of both); and 4. Cells that only express CD14. This would include most normal human monocytes.” left out, “RNA is then prepared from each cell group using TRIZOL, according to manufacturer's instructions.” left out

GPR43 = experiment: QRT-PCR in CD14/CD16-separated cell fractions, GPR43 RNA; type: cell-based, human; conditions: CD14/CD16++ macrophages, 10 μM MGBG, p=0.03
Protocol: as §2, with “Cells that express both CD16 and CD14. This includes monocytes that are expressing CD16+ and macrophages (which express high levels of both); and 4. Cells that only express CD14. This would include most normal human monocytes.” left out, “RNA is then prepared from each cell group using TRIZOL, according to manufacturer's instructions.” left out

CD14 = experiment: QRT-PCR in CD14/CD16-separated cell fractions, CD14 RNA; type: cell-based, human; conditions: CD14/CD16++ macrophages, 10 μM MGBG, p=0.02
Protocol: as §2, with “Cells that express both CD16 and CD14. This includes monocytes that are expressing CD16+ and macrophages (which express high levels of both); and 4. Cells that only express CD14. This would include most normal human monocytes.” left out, “RNA is then prepared from each cell group using TRIZOL, according to manufacturer's instructions.” left out

OPN protein = experiment: OPN production inhibition assay in un-stimulated PBMC cultures, OPN protein; type: cell-based; conditions: 10 μM
Protocol: 10 μM of each drug was added to un-stimulated PBMC cultures at time=0 and cells were harvested 1,3, and 6 days later for quantitative OPN RNA and protein production analysis.

CC(/C=N/NC(=N)N)=N\NC(=N)N [MGBG, 1,1′ [methylethanediylidene]dinitrilodiguanidine]
% Reduction 14/16 (CD14/16++ cells; 5th day of culture, individual donor samples (HIV or healthy)): 26% and 53% and 91% and 54% and 61% and <0% and 71% | % Reduction 14/16, Average (CD14/16++ cells; average of HIV samples): 60.3% | % Reduction 14/16, Average (CD14/16++ cells; average of healthy samples): 57.5% | samples less than 2 fold changed, TNFα probe (TNFα [1]; HIV infected individuals): 6 out of 9 | samples less than 2 fold changed, TNFα probe (TNFα [1]; controls): 2 out of 6 | average change for the TNFα Probe set, up-regulated (TNFα [1]; presence of MGBG, all samples): 8.7 fold | LILRA1 signal +, Average (LILRA1 [2]; average of HIV samples): 77 | LILRA1 signal +, Average (LILRA1 [2]; average of control samples (C6-, M6-177)): 133 | LILRA1 fold change, ON/MGBG ratio (down-regulation) (LILRA1 [2]; 10 μM, individual donor samples): 6.5 fold and 1.8 fold and 0.3 fold (2×) and 11.6 fold and 3.7 fold and 3.1 fold and 13.8 fold and 2.4 fold and 0.5 fold and 1.1 fold and 2.9 fold and 14.6 fold and 1.3 fold (2×) | samples with LILRA1 down-regulated more than 2 fold (LILRA1 [2]; HIV samples): 5 of 9 | LILRA1 signal + (LILRA1 [2]; presence of 10 μM MGBG overnight, individual donor samples): 40 and 129 and 10 and 65 and 246 and 73 and 42 and 99 and 94 and 212 and 277 and 21 and 1 and 15 and 164 | Fold change LILRA1 by QRT-PCR (LILRA1 [3]; 10 μM MGBG overnight, individual samples): −1.91 fold and 1.01 fold and −3.10 fold and 1.31 fold and −2.87 fold and 1.52 fold and −3.97 fold and −2.27 fold and 1.11 fold and 1.34 fold and −4.79 fold and −1.31 fold and 1.28 fold and 13.45 fold | LILRA1 AVERAGE (LILRA1 [3]; 10 μM MGBG, all samples): 1.71 fold | LILRA1 MAX (LILRA1 [3]; 10 μM MGBG, all samples): 13.45 fold | LILRA1 MIN (LILRA1 [3]; 10 μM MGBG, all samples): −4.79 fold | osteopontin RNA, median change relative to no MGBG (osteopontin; CD14+ monocyte fraction): 0.21 | osteopontin RNA median reduction (osteopontin; CD14+ monocyte fraction, 10 μM MGBG 20 h, healthy controls, p=0.03): 4.8 fold | osteopontin RNA, median change relative to no MGBG (osteopontin; CD14/16++ cells, not significant): 0.61 | osteopontin RNA, median change relative to no MGBG (osteopontin; CD16+ cells, not significant): 1.12 | osteopontin RNA, median change relative to no MGBG (osteopontin; double negative cells, not significant): 0.70 | ADA transcription median change (increase) (adenosine deaminase; CD14+ monocytes, p=0.0156): 10.8 fold | ADA transcription median change (increase) (adenosine deaminase; CD14/CD16++ cells): 2.8 fold | ADA transcription change (adenosine deaminase; Double negative cells and CD16+ cells): did not change significantly | TNFα RNA median signal relative to no MGBG (TNFα [4]): 0.32 | GPR43 expression median signal relative to no MGBG (GPR43): 2.4 | CD14 RNA median signal relative to no MGBG (CD14): 0.55 | OPN protein production (OPN protein): Complete inhibition
